Among the data in DBAASP are MIC values, retold here.

Converted amounts (≈) assume the structure as drawn.

A word on the MIC: it is the lowest concentration found to suppress growth. Lower therefore signals greater potency.

Holding throughout (test): ≥ marks a high value that may be exact or a test limit, other limits are often not marked, values filed in µg/mL are converted to µM
In test [1] the test system is Staphylococcus aureus.
Test [2] relates to Streptococcus sanguinis.
For test [3], the system named is Bacillus megaterium CIP 51.17.
Test [4] deals with Escherichia coli CIP 54.8T.
Test [5] deals with Aspergillus flavus PFCC 100.
The subject of test [6] is Aspergillus fumigatus Af293.
In test [7] the test system is Aspergillus niger ATCC 9029.
Test [8] has as its system Candida albicans ATCC 10231.
Test [9] has as its system Candida glabrata ATCC 90030.
The test system of test [10] is Candida krusei DSM 70079.
For test [11], the system named is Bacillus subtilis CCT 2471.
The subject of test [12] is Enterobacter cloacae ATCC 23355.
The test system of test [13] is Escherichia coli ATCC 25922.
For test [14], the system named is Escherichia coli CCT 1371.
The subject of test [15] is Staphylococcus aureus ATCC 25923.
Test [16] has as its system Staphylococcus aureus ATCC 6538.
For test [17], the system named is Staphylococcus epidermidis.
The test system of test [18] is Staphylococcus saprophyticus.
The test system of test [19] is Candida albicans ATCC 14053.
The subject of test [20] is Escherichia coli ATCC 11775.
Test [21] deals with Micrococcus luteus ATCC 49732.
For test [22], the system named is Staphylococcus aureus ATCC 12600.

Consider `NC(=O)[C@H](Cc1ccccc1)NC(=O)[C@H](Cc1ccccc1)NC(=O)[C@H](Cc1ccccc1)NC(=O)[C@H](Cc1ccccc1)NC(=O)[C@H](Cc1ccccc1)NC(=O)[C@H](Cc1ccccc1)NC(=O)[C@H](Cc1ccccc1)NC(=O)[C@@H](N)Cc1ccccc1` [FFFFFFFF], for which the MIC in test [1] came out at 5.8 µM (≈ 6.92 µg/mL); in test [2] it was 7.1 µM (≈ 8.48 µg/mL).
As to `CC[C@H](C)[C@H](NC(=O)[C@H](CCCN=C(N)N)NC(=O)[C@H](CC(N)=O)NC(=O)[C@H](CC(C)C)NC(=O)[C@H](Cc1ccccc1)NC(=O)[C@H](CCCN=C(N)N)NC(=O)[C@H](Cc1ccccc1)NC(=O)[C@H](CCCN=C(N)N)NC(=O)[C@@H](NC(=O)[C@H](CC(C)C)NC(=O)[C@@H](NC(=O)[C@@H](N)C(C)C)[C@@H](C)CC)[C@@H](C)O)C(=O)N[C@H](C(=O)N[C@@H](CCC(=O)O)C(=O)N1CCC[C@H]1C(=O)N[C@@H](CC(C)C)C(=O)N[C@@H](CC(C)C)C(=O)N[C@@H](CCCCN)C(=O)N[C@@H](CCCCN)C(=O)N[C@@H](C)C(=O)O)C(C)C` [VILTRFRFLNRIVEPLLKKA], the MIC in [3] is no less than 100 µM; in [4], no less than 35.4 µM.
Turning to `CC[C@H](C)[C@H](NC(=O)[C@@H](NC(=O)[C@H](CCCCN)NC(=O)[C@H](CC(=O)O)NC(=O)[C@H](C)NC(=O)[C@H](CCC(N)=O)NC(=O)[C@H](CCCN=C(N)N)NC(=O)[C@@H](NC(=O)[C@H](CO)NC(=O)CNC(=O)[C@H](CCCN=C(N)N)NC(=O)[C@H](CCC(=O)O)NC(=O)[C@H](Cc1c[nH]c2ccccc12)NC(=O)[C@@H](NC(=O)[C@H](CS)NC(=O)[C@H](CC(C)C)NC(=O)[C@H](CCC(=O)O)NC(=O)[C@H](CCC(N)=O)NC(=O)[C@H](CCCCN)NC(=O)[C@H](CO)NC(=O)[C@@H](NC(=O)[C@H](CCCN=C(N)N)NC(=O)CN)[C@@H](C)O)[C@@H](C)O)C(C)C)[C@@H](C)O)C(=O)N[C@@H](C)C(=O)NCC(=O)O` [GRTSKQELCTWERGSVRQADKTIAG], the MIC was determined as 23.4 µM (≈ 65 µg/mL) in [5]; 20.7 µM (≈ 57.5 µg/mL) in [6]; 22.5 µM (≈ 62.5 µg/mL) in test [7]; 21.6 µM (≈ 60 µg/mL) in test [8]; 19.8 µM (≈ 55 µg/mL) in test [9]; 20.7 µM (≈ 57.5 µg/mL) in [10].
Consider `CC[C@H](C)[C@H](NC(=O)CNC(=O)[C@H](CCSC)NC(=O)[C@H](CC(C)C)NC(=O)[C@H](CCCCN)NC(=O)[C@@H](N)CC(C)C)C(=O)N[C@H](C(=O)N[C@@H](CCCCN)C(=O)N[C@@H](CCCCN)C(=O)N[C@H](C(=O)N[C@@H](CC(C)C)C(=O)NCC(=O)N[C@@H](C)C(=O)N[C@@H](CC(C)C)C(N)=O)C(C)C)C(C)C` [LKLMGIVKKVLGAL], for which the MIC is no less than 68 µM in test [11]; 17 µM (≈ 25.2 µg/mL) in [12]; 7 µM (≈ 10.4 µg/mL) in test [13]; 17 µM (≈ 25.2 µg/mL) in test [14]; 7 µM (≈ 10.4 µg/mL) in test [15]; 34 µM (≈ 50.4 µg/mL) in test [16]. Also, the figures for the MIC in [17] and in [18] were no less than 34 µM and 3 µM (≈ 4.45 µg/mL), respectively.
As to `CC(C)C[C@H](NC(=O)[C@H](Cc1cnc[nH]1)NC(=O)[C@@H](N)C(C)C)C(=O)N1CCC[C@H]1C(=O)N1CCC[C@H]1C(=O)O` [VHLPP], the minimal inhibitory concentration (MIC) in test [19], in [20], in test [21] and in [22] was no less than 479 µM throughout.
